According to US6800637B2, “Antidepressant indolealkyl derivatives of heterocycle-fused benzodioxan methylamines” (Wyeth, priority 2002, dated 2004):
Where two headings read alike, the source gives them in different places.

What was measured:
serotonin transporter = target: T1, serotonin transporter (Rattus norvegicus, UniProt P31652); test: Displacement of 3H-paroxetine from male rat frontal cortical membranes (serotonin transporter affinity); format: binding; settings: read-out: 5-HT Transporter Affinity KI
T1 construct: displace ^3H-paroxetine from male rat frontal cortical membranes; from tissue; host or cells: male rat frontal cortex membranes

human 5-HT1A receptors = target: T2, human 5-HT1A receptors (Homo sapiens, UniProt P08908); test: Displacement of [3H] 8-OHDPAT from 5-HT1A receptor, CHO cells stably transfected with human 5-HT1A receptors; format: binding; settings: CHO cells with human 5-HT1A receptors, read-out: 5-HT1A Receptor Affinity KI
T2 construct: expressed in transfected cells; host or cells: CHO cells
T2 sequence (P08908 1-422): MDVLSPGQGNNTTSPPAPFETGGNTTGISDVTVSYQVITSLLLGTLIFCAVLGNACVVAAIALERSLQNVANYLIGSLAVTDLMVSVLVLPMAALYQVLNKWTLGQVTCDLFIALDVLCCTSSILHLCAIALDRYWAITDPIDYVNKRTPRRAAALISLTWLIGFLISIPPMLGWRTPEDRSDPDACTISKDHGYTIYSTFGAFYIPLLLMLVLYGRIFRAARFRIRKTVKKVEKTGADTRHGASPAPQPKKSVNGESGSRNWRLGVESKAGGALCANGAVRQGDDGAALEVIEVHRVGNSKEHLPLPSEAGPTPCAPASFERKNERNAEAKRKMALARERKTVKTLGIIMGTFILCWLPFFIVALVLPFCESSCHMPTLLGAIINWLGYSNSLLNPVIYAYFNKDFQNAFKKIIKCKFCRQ
Source text: High affinity for the serotonin 5-HT1A receptor was established by testing the claimed compound's ability to displace [^3H] 8-OHDPAT (dipropylaminotetralin) from the 5-HT1A serotonin receptor following a modification of the procedure of Hall et al., J. Neurochem. 44, 1685 (1985) which utilizes CHO cells stably transfected with human 5-HT1A receptors.

[1] = target: T3, cloned human 5HT1A receptors (Homo sapiens, UniProt P08908); test: 35S-GTPγS binding assay, membranes containing cloned human 5HT1A receptors; format: biochemical; settings: for IC50: antagonist potency, reversal of the effects of the standard agonist 8-OHDPAT, read-out: 5-HT1A Function IC50
T3 construct: expressed in transfected cells
T3 sequence (P08908 1-422): T2 sequence (P08908 1-422)
Description: Antagonist activity at 5-HT1A receptors was established by using a ^35S-GTPγS binding assay similar to that used by Lazareno and Birdsall (Br. J. Pharmacol. 109: 1120, 1993), in which the test compound's ability to affect the binding of ^35S-GTPγS to membranes containing cloned human 5HT1A receptors was determined. Agonists produce an increase in binding whereas antagonists produce no increase but rather reverse the effects of the standard agonist 8-OHDPAT. The test compound's maximum inhibitory effect is represented as the Imax, while its potency is defined by the IC50.

[2] = maximum inhibitory effect, read-out: 5-HT1A Function (Imax)

T1 sequence (P31652 whole entry): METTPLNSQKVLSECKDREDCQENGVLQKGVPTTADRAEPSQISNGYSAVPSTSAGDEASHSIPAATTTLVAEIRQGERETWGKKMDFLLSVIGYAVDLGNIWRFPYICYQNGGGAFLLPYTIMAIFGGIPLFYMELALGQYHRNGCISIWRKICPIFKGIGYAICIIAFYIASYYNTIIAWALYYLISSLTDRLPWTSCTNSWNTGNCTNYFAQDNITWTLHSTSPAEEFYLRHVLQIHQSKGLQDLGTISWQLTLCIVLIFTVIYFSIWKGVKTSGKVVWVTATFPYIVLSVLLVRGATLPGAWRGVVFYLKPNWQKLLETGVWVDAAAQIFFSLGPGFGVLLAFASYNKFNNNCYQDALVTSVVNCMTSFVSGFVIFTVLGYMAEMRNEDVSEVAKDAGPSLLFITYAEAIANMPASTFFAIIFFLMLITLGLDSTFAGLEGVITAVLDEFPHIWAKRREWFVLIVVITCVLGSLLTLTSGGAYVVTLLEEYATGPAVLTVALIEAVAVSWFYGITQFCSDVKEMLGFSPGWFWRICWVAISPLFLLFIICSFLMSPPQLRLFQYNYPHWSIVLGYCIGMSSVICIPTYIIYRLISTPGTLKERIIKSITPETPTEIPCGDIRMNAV

Row | Compound | Ki (serotonin transporter) [nM] | Ki (human 5-HT1A receptors) [nM] | IC50 [1] [nM] | Emax [1, 2] [%] | EC50 ([1]; given as EC50, read-out: 5-HT1A Function EC50) [nM] | Emax ([1]; given as Emax, read-out: 5-HT1A Function Emax) [%]
1 | Cc1ccc2c3c(ccc2n1)OCC(CN(C)CCCc1c[nH]c2c(F)cc(F)cc12)O3 (stereo not drawn) [Example 16, N-[3-(5,7-Difluoro-1H-indol-3-yl)propyl]-N-methyl-N-(8-methyl-2,3-dihydro-[1,4]dioxino[2,3-f]quinolin-2-ylmethyl)amine] | 1.8 | 2.51 | 125 | 100 |  | 
2 | Cc1ccc2c3c(ccc2n1)OC[C@H](CNCCCCc1csc2ccc(Cl)cc12)O3 [Example 49] | 23 | 0.73 | 99 | 33 |  | 
3 | Cc1ccc2c3c(ccc2n1)OCC(CNCCCCc1c[nH]c2ccc(F)cc12)O3 (stereo not drawn) [Example 10, N-[4-(5-Fluoro-1H-indol-3-yl)butyl]-N-(8-methyl-2,3-dihydro-[1,4]dioxino[2,3-f]quinolin-2-ylmethyl)amine] | 1.29 | 1.78 | 71.1 | 61.5 |  | 
4 | Cc1ccc2c3c(ccc2n1)OC[C@H](CNCCCc1csc2ccc(F)cc12)O3 [Example 51, N-[3-(5-Fluoro-1-benzothien-3-yl)propyl]-N-{[(2S)-8-methyl-2,3-dihydro[1,4]dioxino[2,3-f]quinolin-2-yl]methyl}amine] | 2.35 | 0.78 | 19 | 82 |  | 
5 | Cc1nc2ccc3c(c2o1)O[C@@H](CNCCCc1c[nH]c2ccc(C#N)cc12)CO3 [Example 30, 3-{3-[(2-Methyl-7,8-dihydro-[1,4]dioxino[2,3-g][1,3]benzoxazol-8-ylmethyl)amino]-propyl}-1H-indole-5-carbanitrile] | 1.8 | 5.35 | 68 | 73.1 |  | 
6 | CCN(CCCCc1coc2ccccc12)C[C@H]1COc2ccc3nc(C)ccc3c2O1 [Example 52, N-[4-(1-Benzofuran-3-yl)butyl]-N-ethyl-N-{[(2S)-8-methyl-2,3-dihydro[1,4]dioxino[2,3-f]quinolin-2-yl]methyl}amine] |  | 2.08 |  |  | 526 | 97
7 | Cc1ccc2c3c(ccc2n1)OCC(CN(C)CCCCc1c[nH]c2ccc(C#N)cc12)O3 (stereo not drawn) [Example 41, 3-{4-[Methyl-(8-methyl-2,3-dihydro-[1,4]dioxino[2,3-f]quinolin-2-ylmethyl)-amino]-butyl}-1H-indole-5-carbonitrile] | 0.24 | 21 |  |  |  | 
8 | Cc1ccc2c3c(ccc2n1)OCC(CNCCCCc1coc2ccccc12)O3 (stereo not drawn) [Example 28, N-[4-(1-Benzofuran-3-yl)butyl]-N-(8-methyl-2,3-dihydro-[1,4]dioxino[2,3-f]quinolin-2-ylmethyl)amine] | 5.5 | 0.28 |  |  |  | 

Continued, values first:

Row | Ki (serotonin transporter) [nM] | Ki (human 5-HT1A receptors) [nM] | IC50 [1] [nM] | Emax [1, 2] [%] | EC50 ([1]; given as EC50, read-out: 5-HT1A Function EC50) [nM] | Emax ([1]; given as Emax, read-out: 5-HT1A Function Emax) [%] | Compound
9 | 1 | 4.42 | 191 | 75.2 |  |  | Cc1ccc2c3c(ccc2n1)OCC(CN(C)CCCCn1ccc2ccc(F)cc21)O3 (stereo not drawn) [Example 47, [4-(6-Fluoro-indol-1-yl)-butyl]-methyl-(8-methyl-2,3-dihydro-[1,4]dioxino[2,3-f]quinolin-2-ylmethyl)-amine]
10 | 0.41 | 0.27 | 10.6 | 98.7 |  |  | Cc1ccc2c3c(ccc2n1)OC[C@H](CNCCCc1c[nH]c2ccc(F)cc12)O3 [Example 3, N-[3-(5-Fluoro-1H-Indolyl-3-yl)propyl]-N-(8-methyl-2,3-dihydro-[1,4]dioxino[2,3-f]quinolin-2-ylmethyl)amine]
11 | 0.43 | 4.65 |  |  |  |  | Cc1ccc2c3c(ccc2n1)OCC(CNC(C)CCc1c[nH]c2ccc(F)cc12)O3 (single isomer, unassigned; isomer b) [Example 11 Isomer B]
12 | 2.75 | 36 |  |  |  |  | Cc1ccc2c3c(ccc2n1)OCC(CN(C)CCCc1cn(C)c2ccc(F)cc12)O3 (stereo not drawn) [Example 42, [3-(5-Fluoro-1-methyl-1H-indol-3-yl)-propyl]-methyl-(8-methyl-2,3-dihydro-[1,4]dioxino[2,3-f]quinolin-2-ylmethyl)-amine]
